Data set [1] in a line: AUC in rat at 0.5 mg/kg, iv. The format is ADME, organism-based. Set-up: dose 0.5 mg/kg, route intravenous. The following applies: plasma.
A short description of data set [2]: Clearance in rat at 0.5 mg/kg, iv. Set-up: dose 0.5 mg/kg, route intravenous. The format is ADME, organism-based. The following applies: in vivo.
Data set [3] addresses Matrix metalloproteinase-9 (Homo sapiens, UniProt P14780). Kind of data set: Inhibition of MMP9.
The nature of data set [4]: Apparent elimination half life in rat at 0.5 mg/kg, iv. The format is ADME, organism-based. Set-up: dose 0.5 mg/kg, route intravenous. The note with it: in vivo, read-out: beta t1/2 (converted).
The nature of data set [5]: Selectivity for MMP9 over MMP2.
Data set [6] in a line: Metabolic stability in rat liver microsomes assessed as half life […]. The format is ADME, Microsome. (In general: Liver microsomes are vesicles of endoplasmic reticulum, rich in cytochrome P450 enzymes.)
Data set [7] is described as follows: Volume of distribution at steady state in rat at 0.5 mg/kg, iv. The format is ADME, organism-based. Set-up: dose 0.5 mg/kg, route intravenous. The following applies: in vivo, read-out: Vdss.
Data set [8] is described as follows: Metabolic stability in human liver microsomes assessed as half life […]. The format is ADME, Microsome.
A short description of data set [9]: Protein binding in rat at 0.5 mg/kg, iv. The format is ADME, organism-based. Details: dose 0.5 mg/kg, route intravenous. The note with it: plasma, read-out: PPB (converted).
Data set [10] can be described thus: Cmax in rat at 0.5 mg/kg, iv. The format is ADME, organism-based. Set-up: dose 0.5 mg/kg, route intravenous. The note with it: in vivo.
Data set [11] addresses 72 kDa type IV collagenase (Homo sapiens, UniProt P08253). Kind of data set: Inhibition of MMP2.
The nature of data set [12]: Aqueous solubility at pH 7.0. The format is physicochemical.
Data set [13] is described as follows: Aqueous solubility at pH 2.0. The format is physicochemical.
The subject of data set [14] is Rattus norvegicus. Kind of data set: Reduction of ischemia induced brain edema in Sprague-Dawley rat tMCAo model at 2 mg/kg, iv after 3 hrs. The format is functional. Set-up: scale not given: the % may be the effect or the level left.
For data set [15], the target named is Collagenase 3 (Homo sapiens, UniProt P45452). Kind of data set: Inhibition of MMP13.

Bounds are passed on as bounds.

Matrix metalloproteinase-9, sequence (P14780 whole entry): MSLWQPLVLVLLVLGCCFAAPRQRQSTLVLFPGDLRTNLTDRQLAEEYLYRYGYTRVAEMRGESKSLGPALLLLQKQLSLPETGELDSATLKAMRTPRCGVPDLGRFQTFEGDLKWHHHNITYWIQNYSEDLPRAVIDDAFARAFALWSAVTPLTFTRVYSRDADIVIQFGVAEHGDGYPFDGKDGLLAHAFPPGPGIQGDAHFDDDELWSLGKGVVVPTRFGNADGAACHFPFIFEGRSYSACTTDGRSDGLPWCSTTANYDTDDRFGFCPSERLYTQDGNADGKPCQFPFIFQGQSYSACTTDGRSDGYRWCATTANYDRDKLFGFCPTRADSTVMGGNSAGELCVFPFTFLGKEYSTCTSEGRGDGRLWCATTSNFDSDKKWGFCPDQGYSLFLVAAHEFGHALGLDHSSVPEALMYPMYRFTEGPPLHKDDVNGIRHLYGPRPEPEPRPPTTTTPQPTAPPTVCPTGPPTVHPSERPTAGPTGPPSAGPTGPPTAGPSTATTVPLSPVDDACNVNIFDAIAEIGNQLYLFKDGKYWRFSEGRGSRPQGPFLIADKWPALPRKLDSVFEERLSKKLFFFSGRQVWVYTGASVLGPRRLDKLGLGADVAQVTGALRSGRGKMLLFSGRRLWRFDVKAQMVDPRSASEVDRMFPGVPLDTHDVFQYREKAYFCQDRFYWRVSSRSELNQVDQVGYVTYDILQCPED
72 kDa type IV collagenase, sequence (P08253 whole entry): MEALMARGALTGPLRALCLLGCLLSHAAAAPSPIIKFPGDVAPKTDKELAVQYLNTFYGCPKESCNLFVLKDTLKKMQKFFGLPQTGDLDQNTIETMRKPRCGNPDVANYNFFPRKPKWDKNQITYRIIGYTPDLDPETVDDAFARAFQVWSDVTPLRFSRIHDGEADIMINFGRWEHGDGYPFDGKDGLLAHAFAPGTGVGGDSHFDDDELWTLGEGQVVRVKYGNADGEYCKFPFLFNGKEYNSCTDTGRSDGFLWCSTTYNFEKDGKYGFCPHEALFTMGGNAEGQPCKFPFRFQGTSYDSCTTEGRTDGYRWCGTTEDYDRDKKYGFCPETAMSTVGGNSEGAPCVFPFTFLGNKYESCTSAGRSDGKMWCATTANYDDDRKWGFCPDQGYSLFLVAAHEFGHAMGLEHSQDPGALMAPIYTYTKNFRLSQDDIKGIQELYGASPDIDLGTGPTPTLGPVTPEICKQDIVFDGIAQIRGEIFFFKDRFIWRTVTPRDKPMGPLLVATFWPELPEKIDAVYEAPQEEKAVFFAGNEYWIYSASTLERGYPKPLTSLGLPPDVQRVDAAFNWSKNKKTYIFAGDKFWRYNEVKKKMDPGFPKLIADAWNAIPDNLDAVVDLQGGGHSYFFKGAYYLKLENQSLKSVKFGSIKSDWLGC

For the molecule `Cc1ccc(Oc2ccc(N(C[C@H](NC(C)C)C(=O)NO)S(C)(=O)=O)cc2)cc1`, in data set [1], the AUC was determined as 250 ng·h/mL. The molecule further registered a clearance in data set [2] of 35 mL/min/kg. Further, the concentration for half-maximal inhibition (IC50) in data set [3] stood at 520 pM; in [11], 4000 pM. In addition, the half-life in data set [4] is 9.6 min; in data set [6], below 9 min; in [8], 49 min. Besides, the Ratio IC50 in data set [5] amounted to 7.7. Also, in [7], the Vd is 0.49 L/kg. For the same molecule, in data set [9], the fraction unbound was 0.16. In data set [10], this molecule returned a Cmax of 2680 nM.

In data set [1], `CS(=O)(=O)N(C[C@@H](C(=O)NO)N1CCOCC1)c1ccc(Oc2ccc(C(F)(F)F)cc2)cc1` yielded an AUC of 130 ng·h/mL. The clearance in data set [2] is 65.4 mL/min/kg. In addition, the half-life in [4] is 12 min; in data set [6], above 120 min; in data set [8] it was above 120 min. The Ratio IC50 in [5] was 3.2. Besides, the solubility in data set [12] and in data set [13] was above 70 µg/mL throughout. Further, the Vd in data set [7] came out at 0.99 L/kg. The Activity in data set [14] amounted to 3.3%. The fraction unbound in data set [9] is 0.26. The molecule further showed a Cmax in data set [10] of 860 nM.

On to `Cc1ccc(Oc2ccc(N(C[C@@H](C(=O)NO)N3CCOCC3)S(C)(=O)=O)cc2)cc1`, for which the exposure (AUC) in [1] turned out to be 670 ng·h/mL. The molecule also displayed a clearance in data set [2] of 12.8 mL/min/kg. Moreover, the IC50 in data set [3] came to 1900 pM; in data set [11] it was 5200 pM. For the same molecule, the half-life was 360 min in data set [4], 10 min in data set [6] and above 120 min in data set [8]. The Ratio IC50 in data set [5] was determined as 2.7. The solubility in data set [12] and in data set [13] was above 70 µg/mL throughout. Further, the Vd in data set [7] stood at 0.66 L/kg. Further, the fraction unbound in data set [9] is 0.42. This molecule gave a peak concentration (Cmax) in data set [10] of 3700 nM.

With `O=C1NC(=O)C2(CCC(=O)N2c2ccc(Oc3ccc(Cl)cc3)cc2)C(=O)N1`, the inhibition constant Ki in data set [3] is 700 pM; in data set [15], 1000 pM; in [11], 400 pM.

`Cc1ccc(Oc2ccc(N(C[C@H](Nc3cccc(F)c3)C(=O)NO)S(C)(=O)=O)cc2)cc1`: the AUC in [1] is 130 ng·h/mL. The molecule further came in with a clearance in [2] of 66.9 mL/min/kg. Also, the IC50 in [3] was found to be 890 pM. Moreover, the half-life is 36 min in [4], below 9 min in data set [6] and below 9 min in data set [8]. Also, the Ratio IC50 in data set [5] worked out at 59.6. Further, in [7], the Vd was determined as 2.89 L/kg. Moreover, the fraction unbound in data set [9] was 0.003. The same molecule had a peak concentration (Cmax) in data set [10] of 620 nM.

As usually defined, the AUC is the area under the concentration-time curve, a measure of exposure. The term clearance denotes the volume of plasma or blood freed of the substance per unit of time. In general, IC50 refers to the point on the concentration scale where inhibition reaches its midpoint. One may read the Cmax as the highest concentration seen after dosing. One may read the solubility as how much of the substance goes into solution per volume. A word on the Ki: it is a measure of affinity in units of concentration, obtained from inhibition or displacement.

Values taken from ChEMBL document CHEMBL1140820, “beta-N-Biaryl ether sulfonamide hydroxamates as potent gelatinase inhibitors: part 2. Optimization of alpha-amino substituents” (Bioorg Med Chem Lett, 2008).
